Results as given in PubChem BioAssay AID180 (DTP/NCI, 2004).
Where “and” joins values, the source holds several entries; their conditions need not be identical. Equal entries are not always repeated.

System: BDF1 mice, Adenocarcinoma 755 s.c., tumor weight T/C
Assay: NCI In Vivo Anticancer Drug Screen. Data for tumor model Adenocarcinoma 755 (subcutaneous) in B6D2F1 (BDF1) mice
Details: endpoint: mean tumor weight, higher = larger tumour
How it was run: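 Tumor-bearing mice receive test compound while controls get vehicle alone. Antitumor effect is scored from survival or tumor dimensions as a T/C quotient.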

[1] = dose: 1.5 mg/kg/injection, schedule: Q01DX011 (ip), vehicle: methylcellulose (MC)
[2] = dose: 3.1 mg/kg/injection, schedule: Q01DX011 (ip), vehicle: methylcellulose (MC)
[3] = dose: 6.2 mg/kg/injection, schedule: Q01DX011 (ip), vehicle: methylcellulose (MC)
[4] = dose: 12.5 mg/kg/injection, schedule: Q01DX011 (ip), vehicle: methylcellulose (MC)
[5] = dose: 25.0 mg/kg/injection, schedule: Q01DX011 (ip), vehicle: methylcellulose (MC)
[6] = dose: 100.0 mg/kg/injection, schedule: Q01DX011 (ip), vehicle: carboxymethylcellulose (CMC)
[7] = dose: 25.0 mg/kg/injection, schedule: Q01DX011 (ip), vehicle: saline
[8] = dose: 75.0 mg/kg/injection, schedule: Q01DX011 (ip), vehicle: saline
[9] = dose: 225.0 mg/kg/injection, schedule: Q01DX011 (ip), vehicle: saline
[10] = dose: 30.0 mg/kg/injection, schedule: Q01DX011 (ip), vehicle: carboxymethylcellulose (CMC)
[11] = dose: 60.0 mg/kg/injection, schedule: Q01DX011 (ip), vehicle: carboxymethylcellulose (CMC)
[12] = dose: 120.0 mg/kg/injection, schedule: Q01DX011 (ip), vehicle: carboxymethylcellulose (CMC)
[13] = dose: 240.0 mg/kg/injection, schedule: Q01DX011 (ip), vehicle: carboxymethylcellulose (CMC)

SMILES: Nc1nc(SCc2ccccc2F)c2ncn(C3OC(CO)C(O)C3O)c2n1 (stereo unspecified)
- T/C [1]: 106 % of control
- T/C [2]: 41 % of control
- T/C [3]: 7 % of control and 14 % of control
- T/C [4]: 1 % of control
- T/C [5]: 5 % of control

SMILES: COc1ccc(C2=NC(=O)NC2c2ccc(OC)cc2)cc1 (stereo unspecified)
- T/C (dose: 10.0 mg/kg/injection, schedule: Q01DX011 (ip), vehicle: saline): 112 % of control
- T/C (dose: 50.0 mg/kg/injection, schedule: Q01DX011 (ip), vehicle: saline): 18 % of control

SMILES: CCSc1nc(Cl)cc(Sc2nc(N)nc3nc[nH]c23)n1
- T/C (dose: 2.5 mg/kg/injection, schedule: Q01DX011 (ip), vehicle: methylcellulose (MC)): 84 % of control
- T/C (dose: 5.0 mg/kg/injection, schedule: Q01DX011 (ip), vehicle: methylcellulose (MC)): 65 % of control
- T/C (dose: 10.0 mg/kg/injection, schedule: Q01DX011 (ip), vehicle: methylcellulose (MC)): 80 % of control
- T/C (dose: 12.5 mg/kg/injection, schedule: Q01DX011 (ip), vehicle: carboxymethylcellulose (CMC)): 82 % of control
- T/C (dose: 15.0 mg/kg/injection, schedule: Q01DX011 (ip), vehicle: methylcellulose (MC)): 40 % of control
- T/C (dose: 18.0 mg/kg/injection, schedule: Q01DX011 (ip), vehicle: methylcellulose (MC)): 6 % of control
- T/C (dose: 25.0 mg/kg/injection, schedule: Q01DX011 (ip), vehicle: carboxymethylcellulose (CMC)): 69 % of control
- T/C (dose: 36.0 mg/kg/injection, schedule: Q01DX011 (ip), vehicle: methylcellulose (MC)): 20 % of control
- T/C (dose: 50.0 mg/kg/injection, schedule: Q01DX011 (ip), vehicle: carboxymethylcellulose (CMC)): 24 % of control
- T/C (dose: 72.0 mg/kg/injection, schedule: Q01DX011 (ip), vehicle: methylcellulose (MC)): 16 % of control
- T/C [6]: 1 % of control
- T/C (dose: 144.0 mg/kg/injection, schedule: Q01DX011 (ip), vehicle: methylcellulose (MC)): 15 % of control
- T/C (dose: 200.0 mg/kg/injection, schedule: Q01DX011 (ip), vehicle: carboxymethylcellulose (CMC)): 3 % of control

SMILES: CCOC(=O)/C(C)=N\Nc1cc(Cl)nc(N)n1
- T/C (dose: 112.0 mg/kg/injection, schedule: Q01DX011 (ip), vehicle: methylcellulose (MC)): 200 % of control

SMILES: Cc1ccc(S(=O)(=O)NCCCCC(Nc2ncnc3nc[nH]c23)C(=O)O)cc1 (stereo unspecified)
- T/C [7]: 81 % of control
- T/C [8]: 21 % of control
- T/C [9]: 4 % of control

SMILES: CCCNc1ncnc2c1cnn2C1CCCO1 (stereo unspecified)
- T/C [1]: 75 % of control
- T/C [2]: 66 % of control
- T/C [3]: 27 % of control
- T/C [4]: 3 % of control and 4 % of control

SMILES: Cn1c(=O)c2[nH]c(/N=N/N3CCCCC3)nc2n(C)c1=O
- T/C [5]: 61 % of control
- T/C (dose: 75.0 mg/kg/injection, schedule: Q01DX011 (ip), vehicle: methylcellulose (MC)): 69 % of control and 70 % of control

SMILES: Cn1c(=N)nc(SCc2ccccc2Cl)c2[nH]cnc21
- T/C [10]: 88 % of control
- T/C [11]: 118 % of control
- T/C [12]: 88 % of control
- T/C [13]: 16 % of control

SMILES: Cc1nc2nncn2c(=O)[nH]1
- T/C [7]: 67 % of control
- T/C [8]: 101 % of control
- T/C [9]: 84 % of control

SMILES: O=[N+]([O-])c1ccc(O)c([N+](=O)[O-])c1
- T/C (dose: 3.35 mg/kg/injection, schedule: Q01DX011 (ip), vehicle: carboxymethylcellulose (CMC)): 60 % of control
- T/C (dose: 3.92 mg/kg/injection, schedule: Q01DX011 (ip), vehicle: carboxymethylcellulose (CMC)): 57 % of control
- T/C (dose: 6.7 mg/kg/injection, schedule: Q01DX011 (ip), vehicle: carboxymethylcellulose (CMC)): 92 % of control
- T/C (dose: 7.85 mg/kg/injection, schedule: Q01DX011 (ip), vehicle: carboxymethylcellulose (CMC)): 54 % of control
- T/C (dose: 13.4 mg/kg/injection, schedule: Q01DX011 (ip), vehicle: carboxymethylcellulose (CMC)): 64 % of control
- T/C (dose: 15.7 mg/kg/injection, schedule: Q01DX011 (ip), vehicle: carboxymethylcellulose (CMC)): 53 % of control
- T/C (dose: 26.8 mg/kg/injection, schedule: Q01DX011 (ip), vehicle: carboxymethylcellulose (CMC)): 91 % of control
- T/C (dose: 31.4 mg/kg/injection, schedule: Q01DX011 (ip), vehicle: carboxymethylcellulose (CMC)): 78 % of control

SMILES: O=C(OCC1OC(n2cnc3c(=O)[nH]cnc32)CC1OC(=O)c1ccccc1)c1ccccc1 (stereo unspecified)
- T/C [11]: 101 % of control
- T/C [12]: 90 % of control

SMILES: CN1CCC(OC(N)=O)CC1
- T/C (dose: 44.0 mg/kg/injection, schedule: Q01DX011 (ip), vehicle: carboxymethylcellulose (CMC)): 84 % of control
- T/C (dose: 87.5 mg/kg/injection, schedule: Q01DX011 (ip), vehicle: carboxymethylcellulose (CMC)): 96 % of control
- T/C [6]: 70 % of control
- T/C (dose: 155.0 mg/kg/injection, schedule: Q01DX011 (ip), vehicle: carboxymethylcellulose (CMC)): 54 % of control
- T/C (dose: 175.0 mg/kg/injection, schedule: Q01DX011 (ip), vehicle: carboxymethylcellulose (CMC)): 65 % of control
- T/C (dose: 230.0 mg/kg/injection, schedule: Q01DX011 (ip), vehicle: carboxymethylcellulose (CMC)): 46 % of control
- T/C (dose: 525.0 mg/kg/injection, schedule: Q01DX011 (ip), vehicle: carboxymethylcellulose (CMC)): 43 % of control

SMILES: C/C(=N\NC(=O)c1ccncc1)c1ccc(F)cc1
- T/C (dose: 30.0 mg/kg/injection, schedule: Q01DX011 (ip), vehicle: methylcellulose (MC)): 95 % of control

SMILES: Cn1c(=O)c2c(nc(N/N=C/c3cccc(Br)c3)n2C)n(C)c1=O
- T/C [10]: 93 % of control
- T/C [11]: 111 % of control
- T/C [12]: 88 % of control

SMILES: C[C@]12CCC(=O)C=C1CC[C@@H]1[C@@H]2[C@@H](O)C[C@@]2(C)[C@H]1CC[C@]2(O)C(=O)COC(=O)COCC(=O)O
- T/C (dose: 50.0 mg/kg/injection, schedule: Q01DX011 (ip), vehicle: steriod suspending solution): 53 % of control
- T/C (dose: 50.0 mg/kg/injection, schedule: Q01DX011 (sc), vehicle: steriod suspending solution): 54 % of control
- T/C (dose: 100.0 mg/kg/injection, schedule: Q01DX011 (ip), vehicle: steriod suspending solution): 22 % of control
- T/C (dose: 100.0 mg/kg/injection, schedule: Q01DX011 (sc), vehicle: steriod suspending solution): 62 % of control
- T/C (dose: 200.0 mg/kg/injection, schedule: Q01DX011 (ip), vehicle: steriod suspending solution): 12 % of control
- T/C (dose: 200.0 mg/kg/injection, schedule: Q01DX011 (sc), vehicle: steriod suspending solution): 56 % of control
- T/C (dose: 400.0 mg/kg/injection, schedule: Q01DX011 (sc), vehicle: steriod suspending solution): 31 % of control

SMILES: N[C@@H](Cc1ccc(N(CCCl)CCCl)cc1)C(=O)O
- T/C (dose: 0.31 mg/kg/injection, schedule: Q01DX011 (ip), vehicle: carboxymethylcellulose (CMC)): 66 % of control
- T/C (dose: 0.62 mg/kg/injection, schedule: Q01DX011 (ip), vehicle: carboxymethylcellulose (CMC)): 101 % of control
- T/C (dose: 1.25 mg/kg/injection, schedule: Q01DX011 (ip), vehicle: carboxymethylcellulose (CMC)): 59 % of control
- T/C (dose: 2.5 mg/kg/injection, schedule: Q01DX011 (ip), vehicle: carboxymethylcellulose (CMC)): 29 % of control

SMILES: O=C(Nc1ccc(N=Nc2ccc(O)c(C(=O)O)c2)cc1)c1ccc(C(=O)Nc2ccc(N=Nc3ccc(O)c(C(=O)O)c3)cc2)cc1
- T/C [10]: 92 % of control
- T/C [11]: 75 % of control
- T/C [12]: 102 % of control
- T/C [13]: 98 % of control

SMILES: COCC1OC2OC3C(COC)OC(OC4C(COC)OC(OC5C(COC)OC(OC6C(COC)OC(OC7C(COC)OC(OC8C(COC)OC(OC1C(O)C2O)C(O)C8O)C(O)C7O)C(O)C6O)C(O)C5O)C(O)C4O)C(O)C3O (stereo unspecified) (tested in a mixture with another compound)
- T/C (dose: 3.12 mg/kg/injection, schedule: Q01DX011 (ip), vehicle: Klucel (hydroxypropylcellulose) (HPC)): 87 % of control
- T/C (dose: 6.25 mg/kg/injection, schedule: Q01DX011 (ip), vehicle: Klucel (hydroxypropylcellulose) (HPC)): 97 % of control
- T/C (dose: 12.5 mg/kg/injection, schedule: Q01DX011 (ip), vehicle: Klucel (hydroxypropylcellulose) (HPC)): 66 % of control
- T/C (dose: 25.0 mg/kg/injection, schedule: Q01DX011 (ip), vehicle: Klucel (hydroxypropylcellulose) (HPC)): 95 % of control
- T/C (dose: 50.0 mg/kg/injection, schedule: Q01DX011 (ip), vehicle: Klucel (hydroxypropylcellulose) (HPC)): 87 % of control
- T/C (dose: 100.0 mg/kg/injection, schedule: Q01DX011 (ip), vehicle: Klucel (hydroxypropylcellulose) (HPC)): 51 % of control
- T/C (dose: 200.0 mg/kg/injection, schedule: Q01DX011 (ip), vehicle: Klucel (hydroxypropylcellulose) (HPC)): 104 % of control
- T/C (dose: 400.0 mg/kg/injection, schedule: Q01DX011 (ip), vehicle: Klucel (hydroxypropylcellulose) (HPC)): 71 % of control
